According to US10420341B2, “Herbicidal phenylpyrimidines” (BASF SE, priority 2015, dated 2019):

Key:
ECHCG [1] = test: greenhouse pre-emergence herbicidal test; assay type: in vivo, Echinocloa crus-galli; details: pre-emergence method, scale from 0 to 100
In short: (§1)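 Species-dependent temperatures of 10-25° C. or 20-35° C. were maintained for a 2 to 4 week test after pre-emergence nozzle application of compounds dispersed in water. Efficacy was scored 0-100, with 100 denoting no emergence or total aerial destruction.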

ABUTH = test: greenhouse post-emergence herbicidal test; assay type: in vivo, Abutilon theophrasti; details: post-emergence method, scale from 0 to 100
Source text: (§2) The seeds of the test plants were sown separately for each species. For the post-emergence treatment, the test plants were first grown to a height of 3 to 15 cm, depending on the plant habit, and only then treated with the active ingredients which had been suspended or emulsified in water. For this purpose, the test plants were either sown directly and grown in the same containers, or they were first grown separately as seedlings and transplanted into the test containers a few days prior to treatment. Depending on the species, the plants were kept at 10-25° C. or 20-35° C., respectively. The test period extended over 2 to 4 weeks. During this time, the plants were tended, and their response to the individual treatments was evaluated. Evaluation was carried out using a scale from 0 to 100. 100 means no emergence of the plants, or complete destruction of at least the aerial moieties, and 0 means no damage, or normal course of growth. […] The plants used in the greenhouse experiments were of the following species: [table]

APESV = test: greenhouse pre-emergence herbicidal test; assay type: in vivo, Apera spica-venti; details: pre-emergence method, scale from 0 to 100
In short: as §1

AMARE = test: greenhouse post-emergence herbicidal test; assay type: in vivo, Amaranthus retroflexus; details: post-emergence method, scale from 0 to 100
Source text: as §2

ECHCG [2] = test: greenhouse post-emergence herbicidal test; assay type: in vivo, Echinocloa crus-galli; details: post-emergence method, scale from 0 to 100
In short: (§3)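 Read-out is a visual 0–100 injury rating, 100 meaning complete destruction of at least aerial parts and 0 meaning normal growth. It was taken over 2–4 weeks after plants 3–15 cm tall were treated with compound suspended or emulsified in water.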

ALOMY = test: greenhouse post-emergence herbicidal test; assay type: in vivo, Alopercurus myosuroides; details: post-emergence method, scale from 0 to 100
In short: as §3

POLCO = test: greenhouse post-emergence herbicidal test; assay type: in vivo, Polygonum convolvulus; details: post-emergence method, scale from 0 to 100
Source text: as §2

AVEFA = test: greenhouse post-emergence herbicidal test; assay type: in vivo, Avena fatua; details: post-emergence method, application rate 500 g/ha, scale from 0 to 100
In short: as §3

CCc1ncc(-c2ccccc2OC)c(C(=O)O)n1 [example 16]
herbicidal activity against ECHCG (ECHCG [1]; application rate 2000 g/ha): very good (a very good herbicidal activity is given at values of at least 85) | herbicidal activity against ABUTH (ABUTH; application rate 2000 g/ha): very good (a very good herbicidal activity is given at values of at least 85) | herbicidal activity against APESV (APESV; application rate 2000 g/ha): very good (a very good herbicidal activity is given at values of at least 85)

CC(C)c1ncc(-c2ccccc2Cl)c(C(=O)O)n1 [example 32]
herbicidal activity against ECHCG (ECHCG [1]; application rate 1000 g/ha): very good (a very good herbicidal activity is given at values of at least 85) | herbicidal activity against AMARE (AMARE; application rate 1000 g/ha): good (A good herbicidal activity is given at values of at least 70) | herbicidal activity against ABUTH (ABUTH; application rate 1000 g/ha): very good (a very good herbicidal activity is given at values of at least 85) | herbicidal activity against APESV (APESV; application rate 1000 g/ha): very good (a very good herbicidal activity is given at values of at least 85)

COc1ccccc1-c1cnc(C(C)C)nc1C(=O)O [example 35]
herbicidal activity against ECHCG (ECHCG [1]; application rate 1000 g/ha): very good (a very good herbicidal activity is given at values of at least 85) | herbicidal activity against ABUTH (ABUTH; application rate 1000 g/ha): very good (a very good herbicidal activity is given at values of at least 85) | herbicidal activity against APESV (APESV; application rate 1000 g/ha): very good (a very good herbicidal activity is given at values of at least 85)

Cc1ccccc1-c1cnc(CC(C)C)nc1C(=O)O [example 40]
herbicidal activity against ECHCG (ECHCG [2]; application rate 1000 g/ha): good (A good herbicidal activity is given at values of at least 70) | herbicidal activity against ABUTH (ABUTH; application rate 1000 g/ha): very good (a very good herbicidal activity is given at values of at least 85) | herbicidal activity against APESV (APESV; application rate 1000 g/ha): good (A good herbicidal activity is given at values of at least 70)

CCC(C)c1ncc(-c2ccccc2C)c(C(=O)O)n1 (stereo not drawn) [example 41]
herbicidal activity against ECHCG (ECHCG [2]; application rate 1000 g/ha): good (A good herbicidal activity is given at values of at least 70) | herbicidal activity against ABUTH (ABUTH; application rate 1000 g/ha): very good (a very good herbicidal activity is given at values of at least 85) | herbicidal activity against APESV (APESV; application rate 1000 g/ha): very good (a very good herbicidal activity is given at values of at least 85)

COc1ncc(-c2cc(C)ccc2C)c(C(=O)O)n1 [example 54]
herbicidal activity against ECHCG (ECHCG [1]; application rate 1000 g/ha): very good (a very good herbicidal activity is given at values of at least 85) | herbicidal activity against AMARE (AMARE; application rate 1000 g/ha): very good (a very good herbicidal activity is given at values of at least 85) | herbicidal activity against ABUTH (ABUTH; application rate 1000 g/ha): good (A good herbicidal activity is given at values of at least 70) | herbicidal activity against APESV (APESV; application rate 1000 g/ha): very good (a very good herbicidal activity is given at values of at least 85) | herbicidal activity against ALOMY (ALOMY; application rate 1000 g/ha): very good (a very good herbicidal activity is given at values of at least 85)

CSc1ncc(-c2cccc(Cl)c2Cl)c(C(=O)O)n1 [example 90]
herbicidal activity against AMARE (AMARE; application rate 2000 g/ha): very good (a very good herbicidal activity is given at values of at least 85) | herbicidal activity against ECHCG (ECHCG [2]; application rate 2000 g/ha): very good (a very good herbicidal activity is given at values of at least 85) | herbicidal activity against ABUTH (ABUTH; application rate 2000 g/ha): good (A good herbicidal activity is given at values of at least 70)

CSc1ncc(-c2ccc(F)cc2C)c(C(=O)O)n1 [example 94]
herbicidal activity against POLCO (POLCO; application rate 1000 g/ha): very good (a very good herbicidal activity is given at values of at least 85) | herbicidal activity against ECHCG (ECHCG [2]; application rate 1000 g/ha): very good (a very good herbicidal activity is given at values of at least 85) | herbicidal activity against ABUTH (ABUTH; application rate 1000 g/ha): good (A good herbicidal activity is given at values of at least 70)

Cc1ccc(C)c(-c2cnc(N(C)C)nc2C(=O)O)c1 [example 129]
herbicidal activity against ECHCG (ECHCG [1]; application rate 500 g/ha): good (A good herbicidal activity is given at values of at least 70) | herbicidal activity against ABUTH (ABUTH; application rate 500 g/ha): good (A good herbicidal activity is given at values of at least 70) | herbicidal activity against APESV (APESV; application rate 500 g/ha): very good (a very good herbicidal activity is given at values of at least 85)

O=C(O)c1nc(C2CC2)ncc1-c1cccc(F)c1Cl [example 150]
herbicidal activity against ECHCG (ECHCG [1]; application rate 1000 g/ha): very good (a very good herbicidal activity is given at values of at least 85) | herbicidal activity against ABUTH (ABUTH; application rate 1000 g/ha): very good (a very good herbicidal activity is given at values of at least 85) | herbicidal activity against APESV (APESV; application rate 1000 g/ha): very good (a very good herbicidal activity is given at values of at least 85) | herbicidal activity against ALOMY (ALOMY; application rate 1000 g/ha): very good (a very good herbicidal activity is given at values of at least 85)

COc1cc(C)c(-c2cnc(C3CC3)nc2C(=O)O)cc1C [example 169]
herbicidal activity against ECHCG (ECHCG [2]; application rate 1000 g/ha): good (A good herbicidal activity is given at values of at least 70) | herbicidal activity against ABUTH (ABUTH; application rate 1000 g/ha): very good (a very good herbicidal activity is given at values of at least 85) | herbicidal activity against APESV (APESV; application rate 1000 g/ha): very good (a very good herbicidal activity is given at values of at least 85)

COC(=O)c1nc(C2CC2)ncc1-c1cc(Cl)ccc1Cl [example 204]
herbicidal activity against POLCO (POLCO; application rate 500 g/ha): very good (a very good herbicidal activity is given at values of at least 85) | herbicidal activity against AMARE (AMARE; application rate 500 g/ha): very good (a very good herbicidal activity is given at values of at least 85) | herbicidal activity against APESV (APESV; application rate 500 g/ha): very good (a very good herbicidal activity is given at values of at least 85)

COC(=O)c1nc(C2CC2)ncc1-c1cc(C)c(OC)cc1C [example 232]
herbicidal activity against ECHCG (ECHCG [1]; application rate 1000 g/ha): very good (a very good herbicidal activity is given at values of at least 85) | herbicidal activity against ECHCG (ECHCG [2]; application rate 1000 g/ha): very good (a very good herbicidal activity is given at values of at least 85) | herbicidal activity against ABUTH (ABUTH; application rate 1000 g/ha): very good (a very good herbicidal activity is given at values of at least 85) | herbicidal activity against APESV (APESV; application rate 1000 g/ha): very good (a very good herbicidal activity is given at values of at least 85)

Cc1ccccc1-c1cnc(C2CCC2)nc1C(=O)O [example 263]
herbicidal activity against ECHCG (ECHCG [2]; application rate 1000 g/ha): very good (a very good herbicidal activity is given at values of at least 85) | herbicidal activity against ABUTH (ABUTH; application rate 1000 g/ha): very good (a very good herbicidal activity is given at values of at least 85) | herbicidal activity against APESV (APESV; application rate 1000 g/ha): good (A good herbicidal activity is given at values of at least 70)

COC(=O)c1nc(C2CCC2)ncc1-c1ccccc1Cl [example 277]
herbicidal activity against ABUTH (ABUTH; application rate 500 g/ha): very good (a very good herbicidal activity is given at values of at least 85) | herbicidal activity against APESV (APESV; application rate 500 g/ha): good (A good herbicidal activity is given at values of at least 70)

CCCOc1ccc(C(F)(F)F)cc1-c1cnc(C2CC2)nc1C(=O)O [example 306]
herbicidal activity against ABUTH (ABUTH; application rate 1000 g/ha): very good (a very good herbicidal activity is given at values of at least 85)

COC(=O)c1nc(C2CC2)ncc1-c1ccccc1C(F)F [example 308]
herbicidal activity against POLCO (POLCO; application rate 500 g/ha): very good (a very good herbicidal activity is given at values of at least 85) | herbicidal activity against ECHCG (ECHCG [1]; application rate 500 g/ha): very good (a very good herbicidal activity is given at values of at least 85) | herbicidal activity against AVEFA (AVEFA): very good (a very good herbicidal activity is given at values of at least 85) | herbicidal activity against APESV (APESV; application rate 500 g/ha): very good (a very good herbicidal activity is given at values of at least 85) | herbicidal activity against ALOMY (ALOMY; application rate 500 g/ha): very good (a very good herbicidal activity is given at values of at least 85)

O=C(O)c1nc(C2CC2)ncc1-c1ccccc1C(F)F [example 309]
herbicidal activity against POLCO (POLCO; application rate 500 g/ha): very good (a very good herbicidal activity is given at values of at least 85) | herbicidal activity against ECHCG (ECHCG [1]; application rate 500 g/ha): very good (a very good herbicidal activity is given at values of at least 85) | herbicidal activity against AVEFA (AVEFA): very good (a very good herbicidal activity is given at values of at least 85) | herbicidal activity against APESV (APESV; application rate 500 g/ha): very good (a very good herbicidal activity is given at values of at least 85) | herbicidal activity against ALOMY (ALOMY; application rate 500 g/ha): very good (a very good herbicidal activity is given at values of at least 85)

O=C(O)c1nc(C2CC2)ncc1-c1ccccc1SC(F)(F)F [example 310]
herbicidal activity against ABUTH (ABUTH; application rate 1000 g/ha): good (A good herbicidal activity is given at values of at least 70)

O=C(O)c1ccccc1-c1cnc(C2CC2)nc1C(=O)O [example 318]
herbicidal activity against ECHCG (ECHCG [1]; application rate 2000 g/ha): very good (a very good herbicidal activity is given at values of at least 85) | herbicidal activity against ABUTH (ABUTH; application rate 2000 g/ha): very good (a very good herbicidal activity is given at values of at least 85)
